For one data set, the system named is Beta*. The data set is described as follows: Hybridization with complementary DNA, native gel electrophoresis. The settings on record: stoichiometric complementary DNA, temperature annealing, for Beta-SBiB2 the complementary strand is not stated. Format: binding. The text has this:
(§1) Hybridization-driven self-assembly has made DNA a versatile building material for nanoscience. The sequence control over SBiB incorporation in DNA can expand the availability of DNA-initiators as new precursors for the fabrication of hybrid nanomaterials. Towards such an end, the hybridization of a mixed oligonucleotide sequence containing an internal SBiB initiator residue in the middle (Beta-SBiB1) was studied with a stoichiometric amount of complementary DNA followed by temperature annealing. For hybridization experiments, two different complementary strands to Beta-SBiB1 were used: one which was fully complementary to the Beta sequence (Beta*) and another that was fully complementary to the Beta sequence with the additional inclusion of a mismatched T residue opposite the SBiB location within the Beta sequence (Beta*Tmm). Beta*Tmm was used to evaluate if the single T residue opposite the 3 carbons insert of SBiB could reduce the strain during duplex formation.
(§2) Double-stranded DNA preparation and melting curve analysis. Desired single-stranded DNA (Beta or Beta-SBiB) was mixed with a stoichiometric amount of complementary DNA (Beta* or Beta*Tmm) at a final concentration of 20 μM in 1×PBS. The DNA mixture was placed in a heat block at 95° C. for 5 min. Following the heating process, the heat block was turned off and slowly cooled to room temperature (approx. 0.5° C./min). […]

The subject of a further data set is Beta*Tmm. The data set is described as follows: Hybridization with complementary DNA carrying a mismatched T, native gel electrophoresis. Type of data set: binding. The settings on record: stoichiometric complementary DNA, temperature annealing.
Source text: as §1, §2

Data set [1] can be described thus: Stability assay in 10% FBS (gel electrophoresis of remaining DNA). The settings on record: 37° C., 5.3 μM; for time until entirely degraded: 10% FBS and 1X PBS.

On to “Beta-SBiB1: ACG TCG AGC AGT /i/ CAG AGC TGT, i = SBiB residue”, for which the “hybridization (duplex formation)” value in the data set on Beta* and in the data set with Beta*Tmm was “successfully hybridize” each time.

For the substance “Beta-SBiB3: /i/ ACG TCG AGC AGT /i/ CAG AGC TG /i/ T”, the degradation in data set [1] (10% FBS, after 24 hours) was found to be 46%.

Take “unmodified Beta DNA: purchased 21-mer DNA, ACGTCGAGCAGTCAGAGCTGT (DNA ACGTCGAGCAGTCAGAGCTGT; unmodified DNA)”: the “time until entirely degraded” value in data set [1] (in the absence of free pOEOMA) and in data set [1] (in the presence of free pOEOMA in the supernatant) was no more than 12 h in each case.

(Values after US20260146060A1, “PHOSPHORAMIDITE CONJUGATES AND METHODS OF FORMING SYNTHETIC OLIGONUCLEOTIDES THEREFROM” (CARNEGIE MELLON UNIVERSITY, priority 2022, published 2026).)
